The text below walks through data of PMC9815933, “Computational Drug Repurposing Approach to Identify Novel Inhibitors of ILK Protein for Treatment of Esophageal Squamous Cell Carcinoma” (Journal of Oncology, 2022).

What is called Kd is the concentration at which binding is half-saturated.

Each structure is given as a SMILES string.

The target in the assay is T1, integrin-linked kinase (ILK) (Homo sapiens, UniProt Q13418).
T1 sequence (Q13418 1-452): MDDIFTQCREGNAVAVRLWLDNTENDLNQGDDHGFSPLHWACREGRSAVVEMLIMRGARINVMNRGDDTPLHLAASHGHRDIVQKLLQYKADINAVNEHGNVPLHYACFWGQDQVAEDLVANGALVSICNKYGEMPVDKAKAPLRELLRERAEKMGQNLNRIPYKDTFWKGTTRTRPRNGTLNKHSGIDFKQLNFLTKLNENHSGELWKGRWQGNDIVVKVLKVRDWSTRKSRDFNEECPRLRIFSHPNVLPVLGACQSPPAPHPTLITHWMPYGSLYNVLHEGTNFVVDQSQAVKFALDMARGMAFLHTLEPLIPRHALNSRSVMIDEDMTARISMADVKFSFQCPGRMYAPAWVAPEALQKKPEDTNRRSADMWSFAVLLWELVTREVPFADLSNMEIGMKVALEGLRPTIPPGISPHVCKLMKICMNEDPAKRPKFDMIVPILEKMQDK
The assay is described as follows: SPR (Biacore S200), ILK immobilized on CM5 chip. It counts as binding.
`COc1cc([C@@H]2c3cc4c(cc3[C@@H](O[C@@H]3O[C@@H]5CO[C@@H](c6cccs6)O[C@H]5[C@H](O)[C@H]3O)[C@H]3COC(=O)[C@H]23)OCO4)cc(OC)c1O` [d2, Teniposide] showed a Kd of 1.79 µM.
The result for `Cc1cn(-c2cc(NC(=O)c3ccc(C)c(Nc4nccc(-c5cccnc5)n4)c3)cc(C(F)(F)F)c2)cn1` [d1, Nilotinib] reads 6.41 µM.
In turn, `COc1ccc(N=Nc2c(N)n[nH]c2N)cc1` [ILK-IN-3, reference compound] registered a Kd of 2.64 µM.
